Assay results as given in patent US12178875B2, “Lymphatic system-directing lipid prodrugs” (Seaport Therapeutics, Inc., priority 2017, dated 2024).
Blank lines part the entries; values can stand above or below the compound they belong to.

Columns and labels:
[1] = In vitro release of therapeutic agent from prodrugs in plasma supplemented with lipoprotein lipase; type: in vitro ADME, rat
Procedure: The percentage of MPA released at 60 minutes in LPL-supplemented rat plasma was also determined for selected compounds. […] The designation “**” indicates a release % of >25% to 50%. The designation “***” indicates a release % of >50% to 75%. The designation “****” indicates a release % of >75%.
In order to probe the release of free drug from TG prodrugs in the systemic circulation, prodrugs were incubated with plasma (rat, mouse, dog, pig or human) supplemented with lipoprotein lipase (LPL, 200 IU/ml). LPL is a key enzyme required for the hydrolysis of lipoprotein associated TG in the systemic circulation and is therefore expected to be a key contributor to lipolysis of the re-esterified drug-TG construct in plasma, largely via liberation of fatty acids in the sn-1 and the sn-3 position of the TG-mimetic, prior to drug release from the 2′ position via esterase hydrolysis. LPL is […] is tethered to the luminal surface of vascular endothelial cells under physiological conditions. In the current in vitro studies, plasma was therefore supplemented with LPL to better reflect the in vivo situation. To start hydrolysis, 10 μl of LPL solution (10,000 IU/ml) was added to a mixture of 10 μl of prodrug solution (1 mg/ml dissolved in acetonitrile) and 500 μl of blank plasma. The mixture was incubated at 37° C. Samples (20 μl) of the incubation solution were taken at 0, 5, 15, 30, 60, 90, 120 and 180 minutes post-incubation and added to 180 μl of MeCN to stop lipolysis. The mixture was vortexed and centrifuged at 4500×g for 5 minutes to precipitate proteins prior to analysis. The supernatant was analyzed by HPLC-MS/MS for the potential products (MG form, acid form, and free drug) of prodrug hydrolysis.
To assess the stability and release profile of compounds of the present invention, compounds TAC-I-18 and TAC-I-20 were incubated with rat plasma and the concentrations of compounds, parent drug tacrolimus, and acid were monitored by LCMS for about three hours.

[2] = Lymphatic transport assay in mesenteric lymph-duct cannulated rats; type: in vivo, rat; details: total MPA related compound, intraduodenal infusion, anaesthetised mesenteric lymph-duct cannulated rats; class symbols
Procedure: In order to assess the lymphatic transport of disclosed lipid prodrugs in rats, the mesenteric lymph ducts of the rats used in this study were cannulated to allow continual collection of mesenteric lymph. Lipid formulations containing the compound of interest were then administered to the animals, lymph was collected, and drug concentrations in the lymph samples were quantified.
Lipid-based formulations of the compounds of the invention or control compounds were prepared as previously described (Trevaskis, N. L. et al., Pharmaceutical Research, 2005, 22(11), 1863-1870, WO 2016/023082, and WO 2017/041139, hereby incorporated by reference.
In brief, either 1 or 2 mg of test prodrug, 40 mg oleic acid and 25 mg Tween 80 were mixed in a glass vial and incubated at 37° C. for 12-18 h to equilibrate. An aqueous phase consisting of 5.6 ml phosphate buffered saline (PBS, pH 7.4) was subsequently added to the lipid phase (MPA was dissolved in PBS for the preparation of MPA containing formulations) and the formulation emulsified by ultrasonication with a Misonix XL 2020 ultrasonic processor (Misonix, Farmingdale, NY, USA) equipped with a 3.2-mm microprobe tip running at 30% of the maximal amplitude of […] and a frequency of 20 kHz for 2 min at room temperature. Doses for administering to more than one animal can be prepared in one batch by suitably increasing the quantities given above. Drug/prodrug concentrations in all formulations were verified using HPLC-MS.
Male Sprague-Dawley (SD) rats were selected for the lymphatic transport studies involving mycophenolic acid lipid prodrugs. Depending on the therapeutic agent, male, female, or both may be selected for study. Rats (typically 240-320 g) were maintained on a standard diet and fasted overnight with free access to water prior to experiments.
Anesthetized rats were placed on a heated pad at 37° C. and cannulas inserted into the duodenum (for formulation administration and rehydration), mesenteric lymph duct (for lymph collection), and carotid artery (in cases where blood collection was conducted). Post-surgery, rats were re-hydrated for 0.5 h via intraduodenal infusion of normal saline at 2.8 mL/h. […] The collection tubes were changed hourly and lymph flow was measured gravimetrically. […]
Drug concentration in lymph is expressed as total drug and includes free drug and drug associated with different glycerides. […]
Transport of compounds into lymph during each hourly collection period was calculated from the product of the volume of lymph collected and the measured concentrations in lymph. For fluorescently-labelled compounds such as a BDP-conjugate, the concentrations of total compound may be measured by fluorescence spectroscopy without hydrolysis. […]

[3] = mice, oral, multiple dose study: 2 times daily for 2 days, samples on the 3rd day (FIG. 8A/8B)
Procedure: This experiment included a single and multiple dose study. In the multiple dose study, dosing of either free MPA or MPA-2-TG (MPA-I-34, structure below) 2 times daily was performed for 2 days followed by collecting samples from mesenteric or peripheral lymph nodes on the 3rd day after dosing.
The concentrations of free MPA were measured for both groups of mice.

[4] = rat plasma supplemented with LPL, 180 min (FIG. 9, FIG. 10)

- Percentage MPA release at 60 min in LPL supplemented rat plasma ([1]; 60 min, n = 3 unless specified otherwise): **** (a release % of >75%)
- Cumulative lymphatic transport % dose (Mean ± SD, or Range if n = 2) [2]: A (greater than 10% (>10%))
Structure (SMILES): CCCCCCCCCCCCCCCC(=O)OCC(COC(=O)CCCCCCCCCCCCCCC)OC(=O)CCCCCC(=O)Oc1c(C/C=C(\C)CCC(=O)OC)c(OC)c(C)c2c1C(=O)OC2 [MPA-I-19]

- monoglyceride (MG) peak after 180 min [1, 4]: almost completely disappeared
Structure (SMILES): CCCCCCCCCCCCCCCC(=O)OCC(COC(=O)CCCCCCCCCCCCCCC)OC(=O)CC(C)CCCCCCCC(C)C(=O)Oc1c(C/C=C(\C)CCC(=O)OC)c(OC)c(C)c2c1C(=O)OC2 (stereo not drawn) [MPA-I-20]

Structure (SMILES): CCCCCCCCCCCCCCCC(=O)OCC(COC(=O)CCCCCCCCCCCCCCC)OC(=O)CC(C)CCCCCCCC(C)C(=O)OCCCCC(=O)Oc1c(C/C=C(\C)CCC(=O)OC)c(OC)c(C)c2c1C(=O)OC2 (stereo not drawn) [MPA-I-22, (E)-12-(1,3-Bis(palmitoyloxy)propan-2-yl) 1-(5-((6-methoxy-5-(6-methoxy-3-methyl-6-oxohex-2-en-1-yl)-7-methyl-3-oxo-1,3-dihydroisobenzofuran-4-yl)oxy)-5-oxopentyl) 2,10-dimethyldodecanedioate]
- MPA released after 180 min [1, 4]: about 80%
- monoglyceride (MG) peak after 180 min [1, 4]: almost completely disappeared

Structure (SMILES): CCCCCCCCCCCCCCCC(=O)OCC(COP(=O)([O-])OCC[N+](C)(C)C)OC(=O)CC/C(C)=C/Cc1c(O)c2c(c(C)c1OC)COC2=O (stereo not drawn) [MPA-I-39]
- Cumulative lymphatic transport % dose (Mean ± SD, or Range if n = 2) [2]: C (less than 1% and greater than 0.24% (<1% and >0.24%))

- Cumulative lymphatic transport % dose (Mean ± SD, or Range if n = 2) [2]: A (greater than 10% (>10%))
Structure (SMILES): CCCCCCCCCCCCCCCC(=O)OCC(COC(=O)CCCCCCCCCCCCCCC)OC(=O)COC(=O)CC/C(C)=C/Cc1c(O)c2c(c(C)c1OC)COC2=O [MPA-I-46]

- Cumulative lymphatic transport % dose (Mean ± SD, or Range if n = 2) [2]: A (greater than 10% (>10%))
Structure (SMILES): CCCCCCCCCCCCCCCC(=O)OCC(COC(=O)CCCCCCCCCCCCCCC)OC(=O)CC(C)COC(=O)CC/C(C)=C/Cc1c(O)c2c(c(C)c1OC)COC2=O (stereo not drawn) [MPA-I-50]

Structure (SMILES): CCCCCCCCCCCCCCCC(=O)OCC(COC(=O)CCCCCCCCCCCCCCC)OC(=O)CC/C(C)=C/Cc1c(O)c2c(c(C)c1OC)COC2=O [MPA-TG]
- concentrations of free MPA in mesenteric lymph nodes compared with MPA [3]: Much higher concentrations
